Measurements: US12264156B2, “Compounds and pharmaceutical compositions thereof for the treatment of diseases” (GALAPAGOS NV, priority 2018, dated 2025)

Columns and labels:
[1] = test system: LPS triggered IL-10 secretion in monocyte-derived macrophages (MdM); test: MdM assay: LPS-triggered IL-10 (ELISA); format: cell-based, human; conditions: LPS 200 ng/mL, supernatant after 2 h, maximal fold change vs LPS only
Procedure: SIK inhibition inhibits TNFα and increases IL-10 release in LPS triggered monocyte-derived macrophages (MdM) and dendritic […] al. 2012; Sundberg et al. 2014; Ozanne et al. 2015). This assay evaluates illustrative compounds of the invention for their inhibition of LPS-induced TNFα and LPS triggered IL-10 secretion in monocyte-derived macrophages. PBMCs are isolated from human blood samples (buffycoats). The buffy coat is aseptically transferred into a 50 mL Falcon tube, and diluted 1/2 in PBS. Falcon tubes are filled with 20 mL LymphoprepTM, on top of which 25 mL of the buffy coat is carefully added, tubes are centrifuged for 35 min at 400 g in temperature controlled centrifuge, without brake, at 25° C. PBMCs are aspirated from the white interface layer between sample and LymphoprepTM. PBMCs are washed five times in PBS. Cells are resuspended in RPMI 1640 complete medium supplemented with 10% FBS, 1% P/S, and cell density is determined using a hematologic analyzer (Sysmex XS-500i). PBMCs are centrifuged at 300×g for 10 min and resuspended at a density of 1.0*10^7 cells/80 μL Miltenyi buffer (PBS, pH 7.4, 1% FBS, 2 mM EDTA). Starting from this point of the protocol all steps are performed on ice. 20 μL of CD14+ micro-beads are added per 1.0*10^7 cells, the tube is mixed and incubated for 15 min in the fridge at 4° C. Cell suspension volume is adjusted to total volume of 100 mL using Miltenyi buffer, mixed gently and subsequently centrifuged for 10 min at 300×g. Supernantant is discarded and cell pellet is resuspended in 12 mL of Miltenyi buffer. Four LS columns are placed in the MACS Separator (magnet) from Miltenyi Biotec, and are prewet by rinsing with 3 mL of MACS buffer per column. Three mL of cell suspension is added onto the column (max 1*10^8 of labelled cells/column), and columns are subsequently washed 3 times with 3 mL of Miltenyi buffer. The columns are removed from the magnets, and 5 mL of Miltenyi buffer are added to the column to flush out the CD14+ fraction by pushing the plunger into the column. The flushed fractions are collected in a fresh 50 mL Falcon and volume is adjusted to 30 mL using Miltenyi buffer, cells are centrifuged for 10 min at 300×g. The obtained cell pellet is resuspended in 10 mL RPMI w/o FBS, and cell density is determined using a hematologic analyser (Sysmex XS-500i). 100 000 cells are seeded per well of a 96-well plate for differentiation to MdM in RPMI 1640 medium supplemented with 10% FBS, 1% P/S and 100 ng/mL rhM-CSF. On day 5 the medium is refreshed with 100 μL RPMI 1640 medium supplemented with 10% FBS, 1% P/S and 100 ng/mL rhM-CSF. On day 10, MdMs are triggered and compound is added. A compound dilution plate is made in 100% DMSO by 3-fold dilution of 10 mM stock solution. An intermediate dilution plate (10× final concentration) is made by diluting the compound dilution plate 50-fold in RPMI medium. Medium is carefully removed from cell plates using multichannel pipette, and replaced by 80 μL fresh medium. 10 μL of the 10× final concentration compound is added to the cells and incubated for 1 hour at 37° C. before addition of trigger. No trigger conditions/trigger conditions are spiked with equal final DMSO concentrations of 0.2% DMSO. 10 μL of 10×LPS (final conc. 200 ng/mL) solution are added to all wells except for the 'no trigger wells' where 10 μL medium is added. Supernatant is collected after 2 h (IL-10 determination) and after 20 h (TNFα determination) of LPS triggering. […]

SIK2 = biological target: T1, SIK2 (Homo sapiens, UniProt Q9H0K1); test: ADP-Glo kinase assay, SIK2; format: biochemical; conditions: ADP-Glo SIK kinase assay
T1 construct: purchased ThermoFisher Scientific PV4792
T1 sequence (Q9H0K1 whole entry): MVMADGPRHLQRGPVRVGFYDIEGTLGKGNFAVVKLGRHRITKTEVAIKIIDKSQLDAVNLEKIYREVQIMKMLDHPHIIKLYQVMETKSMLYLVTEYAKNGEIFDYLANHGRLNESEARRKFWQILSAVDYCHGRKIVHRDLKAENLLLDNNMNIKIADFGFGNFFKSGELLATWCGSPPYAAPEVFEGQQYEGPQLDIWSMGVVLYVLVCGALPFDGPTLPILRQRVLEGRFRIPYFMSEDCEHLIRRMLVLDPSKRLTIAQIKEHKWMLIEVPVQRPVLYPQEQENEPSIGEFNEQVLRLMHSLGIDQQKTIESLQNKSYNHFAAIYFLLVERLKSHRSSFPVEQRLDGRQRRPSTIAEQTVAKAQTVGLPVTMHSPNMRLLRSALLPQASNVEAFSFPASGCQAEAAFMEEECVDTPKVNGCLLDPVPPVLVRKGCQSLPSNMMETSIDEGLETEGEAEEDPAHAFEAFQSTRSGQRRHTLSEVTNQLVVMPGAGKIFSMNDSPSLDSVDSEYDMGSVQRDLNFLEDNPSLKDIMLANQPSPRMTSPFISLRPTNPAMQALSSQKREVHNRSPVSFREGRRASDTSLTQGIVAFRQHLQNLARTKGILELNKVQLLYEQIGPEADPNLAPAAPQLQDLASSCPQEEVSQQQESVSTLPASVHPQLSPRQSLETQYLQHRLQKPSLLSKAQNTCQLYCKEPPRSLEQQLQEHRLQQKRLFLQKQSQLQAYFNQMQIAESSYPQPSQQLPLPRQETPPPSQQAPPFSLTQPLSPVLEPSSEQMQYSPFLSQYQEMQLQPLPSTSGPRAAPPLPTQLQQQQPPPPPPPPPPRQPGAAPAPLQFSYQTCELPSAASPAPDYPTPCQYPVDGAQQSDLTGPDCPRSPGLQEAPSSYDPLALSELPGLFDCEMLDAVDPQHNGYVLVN
How it was run: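 ADP-Glo, RT throughout. Enz/substrate + ATP, 120 min; ADP-Glo reagent 40 min (ATP depletion); detection reagent 30 min; luminescence read. Neg ctrl 1% DMSO, pos ctrl 10 μM staurosporine, final concs.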

IC50 (SIK2) [nM]	SMILES	IL-10 FCmax median [1]
0.01 to 10	COc1cc(-c2cnc3cc(OCC4CCO4)ccn23)cc2c1C(=O)N(CC(F)(F)F)CC2 (stereo not drawn) [compound 125, 8-methoxy-6-[7-(oxetan-2-ylmethoxy)imidazo[1,2-a]pyridin-3-yl]-2-(2,2,2-trifluoroethyl)-3,4-dihydroisoquinolin-1-one]	++ (>1.5-4.5)
0.01 to 10	CNc1cc(-c2cnc3cc(OCCN(C)C)ccn23)cc2c1C(=O)N(CC(F)(F)F)CC2 [compound 167, 6-[7-[2-(dimethylamino)ethoxy]imidazo[1,2-a]pyridin-3-yl]-8-(methylamino)-2-(2,2,2-trifluoroethyl)-3,4-dihydroisoquinolin-1-one]	+ (≤1.5)
0.01 to 10	COc1cc(-c2cnc3cc(OC[C@H]4COCCO4)ccn23)cc2c1C(=O)N(CC(F)F)CC2 [compound 219, 2-(2,2-difluoroethyl)-6-[7-[[(2R)-1,4-dioxan-2-yl]methoxy]imidazo[1,2-a]pyridin-3-yl]-8-methoxy-3,4-dihydroisoquinolin-1-one]	++ (>1.5-4.5)
0.01 to 10	COc1cc(-c2cnc3cc(OCCN(C)C)ccn23)cc2c1C(=O)N(CC(F)F)CC2 [compound 54, 2-(2,2-difluoroethyl)-6-[7-[2-(dimethylamino)ethoxy]imidazo [1,2-a]pyridin-3-yl]-8-methoxy-3,4-dihydro isoquinolin-1-one]	++ (>1.5-4.5)
0.01 to 10	COc1cc(-c2cnc3cc(OCCN(C)C)ccn23)cc(OC(F)F)c1C(=O)NCC(F)(F)F [compound 166, 2-(difluoromethoxy)-4-[7-[2-(dimethylamino)ethoxy]imidazo[1,2-a]pyridin-3-yl]-6-methoxy-N-(2,2,2-trifluoroethyl)benzamide]	++ (>1.5-4.5)
0.01 to 10	COc1cc(-c2cnc3cc(OC[C@H]4CCCCN4C)ccn23)cc(OC(F)F)c1C(=O)NC1CC1 [compound 111, N-cyclopropyl-2-(difluoromethoxy)-6-methoxy-4-[7-[[(2R)-1-methyl-2-piperidyl]methoxy]imidazo[1,2-a]pyridin-3-yl]benzamide]	++ (>1.5-4.5)
0.01 to 10	COc1cc(-c2cnc3cc(OCCN4CCS(=O)(=O)CC4)ccn23)cc2c1C(=O)N(CC(F)(F)F)CC2 [compound 41, 6-[7-[2-(1,1-dioxo-1,4-thiazinan-4-yl)ethoxy]imidazo[1,2-a]pyridin-3-yl]-8-methoxy-2-(2,2,2-trifluoroethyl)-3,4-dihydroisoquinolin-1-one]	++ (>1.5-4.5)
0.01 to 10	COc1cc(-c2cnc3cc(OCCN(C)C)ccn23)cc2c1C(=O)N(CC(F)(F)F)CC2 [Cpd 18, 6-[7-[2-(dimethylamino)ethoxy]imidazo[1,2-a]pyridin-3-yl]-8-methoxy-2-(2,2,2-trifluoroethyl)-3,4-dihydroisoquinolin-1-one]	++ (>1.5-4.5)
0.01 to 10	COc1cc(-c2cnc3cc(OC[C@H]4CCCN4C)ccn23)cc(OC(F)F)c1C(=O)NC1CC1 [compound 81, N-cyclopropyl-2-(difluoromethoxy)-6-methoxy-4-[7-[[(2R)-1-methylpyrrolidin-2-yl]methoxy]imidazo[1,2-a]pyridin-3-yl]benzamide]	++ (>1.5-4.5)
0.01 to 10	COc1cc(-c2cnc3cc(OCCC4CCCN4C)ccn23)cc(OC(F)F)c1C(=O)NC1CC1 (stereo not drawn) [compound 17, N-cyclopropyl-2-(difluoromethoxy)-6-methoxy-4-[7-[2-(1-methylpyrrolidin-2-yl)ethoxy]imidazo[1,2-a]pyridin-3-yl]benzamide]	++ (>1.5-4.5)
0.01 to 10	COc1cc(-c2cnc3cc(OCC4CN(C)C4)ccn23)cc(OC(F)F)c1C(=O)NC1CC1 [Cpd 14, N-cyclopropyl-2-(difluoromethoxy)-6-methoxy-4-[7-[(1-methylazetidin-3-yl)methoxy]imidazo[1,2-a]pyridin-3-yl]benzamide]	++ (>1.5-4.5)
0.01 to 10	COc1cc(-c2cnc3cc(OCCN4CCCCC4)ccn23)cc2c1C(=O)N(CC(F)(F)F)CC2 [compound 40, 8-methoxy-6-[7-[2-(1-piperidyl)ethoxy]imidazo [1,2-a]pyridin-3-yl]-2-(2,2,2-trifluoroethyl)-3,4-dihydroisoquinolin-1-one]	++ (>1.5-4.5)
0.01 to 10	COc1cc(-c2cnc3cc(OCC(C)(C)N)ccn23)cc(OC(F)F)c1C(=O)NC1CC1 [compound 104, 4-[7-(2-amino-2-methyl-propoxy)imidazo[1,2-a]pyridin-3-yl]-N-cyclopropyl-2-(difluoromethoxy)-6-methoxy-benzamide]	+ (≤1.5)
0.01 to 10	COc1cc(-c2cnc3cc(OCCCN(C)C)ccn23)cc(OC(F)F)c1C(=O)NC1CC1 [Cpd 13]	++ (>1.5-4.5)
0.01 to 10	COc1cc(-c2cnc3cc(OC[C@@H]4CN(C)CCO4)ccn23)cc2c1C(=O)N(CC(F)(F)F)CC2 [compound 191, 8-methoxy-6-[7-[[(2S)-4-methylmorpholin-2-yl]methoxy]imidazo [1,2-a]pyridin-3-yl]-2-(2,2,2-trifluoroethyl)-3,4-dihydroisoquinolin-1-one]	++ (>1.5-4.5)
0.01 to 10	COc1cc(-c2cnc3cc(OCC(O)CN4CCCCC4)ccn23)cc(OC(F)F)c1C(=O)NC1CC1 (stereo not drawn) [Cpd 321, N-cyclopropyl-2-(difluoromethoxy)-4-[7-[2-hydroxy-3-(1-piperidyl)propoxy]imidazo [1,2-a]pyridin-3-yl]-6-methoxy-benzamide]	++ (>1.5-4.5)
0.01 to 10	COc1cc(-c2cnc3cc(OCc4ccnn4C)ccn23)cc(OC(F)F)c1C(=O)NC1CC1 [compound 44, N-cyclopropyl-2-(difluoromethoxy)-6-methoxy-4-[7-[(2-methylpyrazol-3-yl)methoxy]imidazo[1,2-a]pyridin-3-yl] benzamide]	+ (≤1.5)
0.01 to 10	CCN1CCCCC1COc1ccn2c(-c3cc(OC)c(C(=O)NC4CC4)c(OC(F)F)c3)cnc2c1 (stereo not drawn) [compound 83, N-cyclopropyl-2-(difluoromethoxy)-4-[7-[(1-ethyl-2-piperidyl)methoxy]imidazo [1,2-a]pyridin-3-yl]-6-methoxy-benzamide]	++ (>1.5-4.5)
0.01 to 10	COc1cc(-c2cnc3cc(OCC4(F)CN(C)C4)ccn23)cc2c1C(=O)N(CC(F)(F)F)CC2 [compound 252, 6-[7-[(3-fluoro-1-methyl-azetidin-3-yl)methoxy]imidazo[1,2-a]pyridin-3-yl]-8-methoxy-2-(2,2,2-trifluoroethyl)-3,4-dihydro isoquinolin-1-one]	++ (>1.5-4.5)
0.01 to 10	COc1cc(-c2cnc3cc(OCCN4CCOCC4)ccn23)cc2c1C(=O)N(CC(F)F)CC2 [compound 218, 2-(2,2-difluoroethyl)-8-methoxy-6-[7-(2-morpholinoethoxy)imidazo [1,2-a]pyridin-3-yl]-3,4-dihydroisoquinolin-1-one]	++ (>1.5-4.5)
0.01 to 10	CN(C)CCOc1ccn2c(-c3cc4c(c(OC(F)F)c3)C(=O)N(CC(F)F)CC4)cnc2c1 [Cpd 150, 2-(2,2-difluoroethyl)-8-(difluoromethoxy)-6-[7-[2-(dimethylamino)ethoxy]imidazo[1,2-a]pyridin-3-yl]-3,4-dihydroisoquinolin-1-one]	++ (>1.5-4.5)
